Assay results published in ChEMBL document CHEMBL3603790, “2- and 3-Fluoro-3-deazaneplanocins, 2-fluoro-3-deazaaristeromycins, and 3-methyl-3-deazaneplanocin: Synthesis and antiviral properties” (Bioorg Med Chem, 2015).
Calls of active or inactive are those of the source. No cut-off for these calls is given here.

Columns and labels:
[1] = tested on: Yellow fever virus; test: Antiviral activity against Yellow fever virus infected in African green monkey Vero cells after 3 days by neutral red dye-based plaque reduction assay; type: functional, organism-based; conditions: 72 h
[2] = tested on: Rift Valley fever virus; test: Antiviral activity against Rift Valley fever virus infected in African green monkey Vero 76 cells after 3 days by neutral red dye-based plaque reduction assay; type: functional, organism-based
[3] = tested on: Dengue virus; test: Antiviral activity against Dengue virus infected in African green monkey Vero cells after 3 days by neutral red dye-based plaque reduction assay; type: functional, organism-based
[4] = tested on: Human betaherpesvirus 5; test: Antiviral activity against HCMV infected in HFF after 3 days by neutral red dye-based plaque reduction assay; type: functional, organism-based; conditions: Human betaherpesvirus 5, 72 h
[5] = tested on: Hepatitis B virus; test: Antiviral activity against HBV infected in human HepG22.2.15 cells after 3 days by neutral red dye-based plaque reduction assay; type: functional, organism-based; conditions: HepG2 2.2.15, 72 h
[6] = tested on: Measles morbillivirus; test: Antiviral activity against Measles virus infected in African green monkey CV1 cells after 3 days by neutral red dye-based plaque reduction assay; type: functional, organism-based; conditions: CV-1, 72 h
[7] = Cytotoxicity against African green monkey Vero cells; type: cell-based; conditions: chlorocebus sabaeus, Vero cells
[8] = Cytotoxicity against African green monkey Vero 76 cells; type: cell-based; conditions: chlorocebus sabaeus, vero 76
[9] = Cytotoxicity against HFF; type: cell-based; conditions: human, HFF cells
[10] = tested on: MDCK; test: Cytotoxicity against MDCK cells; type: cell-based, Canis lupus familiaris; conditions: dog, mdck
[11] = Cytotoxicity against human […] cells; type: cell-based
[12] = Cytotoxicity against African green monkey CV1 cells; type: cell-based, CV-1; conditions: chlorocebus aethiops
[13] = Selectivity index, ratio of CC50 for African green monkey Vero cells to IC50 for Yellow fever virus; type: functional
[14] = Selectivity index, ratio of CC50 for HFF to IC50 for HCMV; type: functional
[15] = Selectivity index, ratio of CC50 for human HepG2(2.2.1) cells to IC50 for HBV; type: functional
[16] = Selectivity index, ratio of CC50 for African green monkey CV1 cells to IC50 for Measles virus; type: functional, CV-1
[17] = tested on: West Nile virus; test: Antiviral activity against WNV infected in African green monkey Vero 76 cells after 3 days by neutral red dye-based plaque reduction assay; type: functional, organism-based
[18] = tested on: Vaccinia virus; test: Antiviral activity against Vaccinia virus infected in HEL cells after 3 days by neutral red dye-based plaque reduction assay; type: functional, organism-based; conditions: Orthopoxvirus vaccinia
[19] = tested on: Respiratory syncytial virus; test: Antiviral activity against Respiratory syncytial virus infected in human HeLa cells after 3 days by neutral red dye-based plaque reduction assay; type: functional, organism-based
[20] = tested on: Respiratory syncytial virus; test: Antiviral activity against Respiratory syncytial virus infected in monkey MA104 cells after 3 days by neutral red dye-based plaque reduction assay; type: functional, organism-based
[21] = tested on: Influenza A virus; test: Antiviral activity against Influenza A virus H1N1 infected in MDCK cells after 3 days by neutral red dye-based plaque reduction assay; type: functional, organism-based
[22] = tested on: Venezuelan equine encephalitis virus; test: Antiviral activity against Venezuelan equine encephalitis virus infected in African green monkey Vero cells after 3 days by neutral red dye-based plaque reduction assay; type: functional, organism-based
[23] = tested on: SARS-CoV; test: Antiviral activity against SARS coronavirus infected in African green monkey Vero E6 cells after 3 days by neutral red dye-based plaque reduction assay; type: functional, organism-based; conditions: Severe acute respiratory syndrome-related coronavirus
[24] = tested on: Hepatitis C virus; test: Antiviral activity against Hepatitis C virus infected in human Ava5 cells after 3 days by neutral red dye-based plaque reduction assay; type: functional, organism-based; conditions: Hepacivirus hominis
[25] = tested on: Human alphaherpesvirus 1; test: Antiviral activity against Human herpesvirus 1 infected in HEL cells after 3 days by neutral red dye-based plaque reduction assay; type: functional, organism-based
[26] = tested on: Human alphaherpesvirus 2; test: Antiviral activity against Human herpesvirus 2 infected in HEL cells after 3 days by neutral red dye-based plaque reduction assay; type: functional, organism-based
[27] = tested on: Enterovirus C; test: Antiviral activity against Poliovirus infected in monkey LLC-MK2 cells after 3 days by neutral red dye-based plaque reduction assay; type: functional, organism-based
[28] = tested on: HEL; test: Cytotoxicity against HEL cells; type: cell-based; conditions: human
[29] = Cytotoxicity against monkey MA104 cells; type: cell-based, Macaca mulatta; conditions: rhesus monkey
[30] = Cytotoxicity against human Ava5 cells; type: cell-based
[31] = tested on: LLC-MK2; test: Cytotoxicity against monkey LLC-MK2 cells; type: cell-based, Macaca mulatta; conditions: rhesus monkey
[32] = Inhibition of rabbit erythrocytic AdoHcy hydrolase using AdoHcy as substrate assessed as formation of L-homocysteine preincubated for 5 mins followed by substrate addition measured after 1 hr by thiol quantitation reagent-based assay; design: species or system Oryctolagus cuniculus
[33] = tested on: HeLa; test: Cytotoxicity against human HeLa cells; type: cell-based
[34] = Cytotoxicity against African green monkey Vero E6 cells; type: cell-based; conditions: chlorocebus sabaeus

| SMILES | IC50 [1] [µM] | Activity [2] | Activity [3] | IC50 [4] [µM] | IC50 [5] [µM] | IC50 [6] [µM] | CC50 [7] [µM] | Activity [8] | CC50 [9] [µM] | Activity [10] | CC50 [11] [µM] | CC50 [12] [µM] | Ratio CC50/IC50 [13] | Ratio CC50/IC50 [14] | Ratio CC50/IC50 [15] | Ratio CC50/IC50 [16] | Activity [17] | Activity [18] | Activity [19] | Activity [20] | other results |
| --- | --- | --- | --- | --- | --- | --- | --- | --- | --- | --- | --- | --- | --- | --- | --- | --- | --- | --- | --- | --- | --- |
| Nc1nc(F)cc2c1ncn2[C@@H]1C=C(CCO)[C@@H](O)[C@H]1O | 29 | inactive | inactive | < 0.1 | 0.99 | 89.8 | > 100 | Non-toxic | > 300 | Non-toxic | 7.5 | > 100 | >3.4 | > 300 | 8 | >1 | inactive | inactive | inactive | inactive | Activity [21]: inactive; Activity [22]: inactive; Activity [23]: inactive; Activity [24]: inactive; Activity [25]: inactive; Activity [26]: inactive; Activity [27]: inactive; Activity [28]: Non-toxic; Activity [29]: Non-toxic; Activity [30]: Non-toxic; Activity [31]: Non-toxic; IC50 [32]: > 10 µM; Activity [33]: Non-toxic; Activity [34]: Non-toxic |
| Nc1nc(F)cc2c1ncn2[C@@H]1C=C(CO)[C@@H](O)[C@H]1O | 6.8 | inactive | inactive | 8.7 | 0.67 | 8.5 | > 100 | Non-toxic | 218 | Non-toxic | 11 | > 100 | >50 | 25 | 17 | >12 | inactive | inactive | inactive | inactive | Activity [21]: inactive; Activity [22]: inactive; Activity [23]: inactive; Activity [24]: inactive; Activity [25]: inactive; Activity [26]: inactive; Activity [27]: inactive; Activity [28]: Non-toxic; Activity [29]: Non-toxic; Activity [30]: Non-toxic; Activity [31]: Non-toxic; IC50 [32]: 1.4 µM; Activity [33]: Non-toxic; Activity [34]: Non-toxic |
